Activity calls are given as the source filed them. The calls are words filed in the database; no cut-off is given here.
What was measured:
Format in all cases: functional, cell-based
[1] = test system: HL-60; assay: Cytotoxicity against human HL-60 cells assessed as reduction in cell viability after 48 hrs by MTS assay; conditions: HL-60, 48 h
[2] = test system: SMMC-7721; assay: Cytotoxicity against human SMMC-7721 cells assessed as reduction in cell viability after 48 hrs by MTS assay; conditions: SMMC-7721, 48 h
[3] = test system: A549; assay: Cytotoxicity against human A549 cells assessed as reduction in cell viability after 48 hrs by MTS assay; conditions: A549, 48 h
[4] = test system: MCF7; assay: Cytotoxicity against human MCF7 cells assessed as reduction in cell viability after 48 hrs by MTS assay; conditions: MCF7, 48 h
[5] = test system: SW480; assay: Cytotoxicity against human SW480 cells assessed as reduction in cell viability after 48 hrs by MTS assay; conditions: SW480, 48 h
[6] = test system: RAW264.7; assay: Inhibition of LPS-induced NO production in mouse RAW264.7 cells at 50 uM incubated for 18 hrs by Griess reagent based assay

SMILES | IC50 [1] | IC50 [2] | IC50 [3] | IC50 [4] | IC50 [5] | inhibition [6]
COc1cc(C)c2c3c(c(=O)oc2c1)C[C@@H]([C@@]1(C)CC[C@H]2C(C)(C)C(=O)CC[C@@]21C)O3 | > 40 µM | > 40 µM | > 40 µM | > 40 µM | > 40 µM | inactive
COc1cc(C)c2c3c(c(=O)oc2c1)C[C@@H]([C@@]1(C)CC[C@H]2C(C)(C)[C@@H](O)CC[C@@]21C)O3 | 3.6 µM | 3.7 µM | 15.3 µM | 13 µM | 27.1 µM | inactive
